Experimental data published in US4229375A (priority 1977, dated 1980).
Structures can show the parent of a compound that is named as a salt.

How the values were obtained:
Newcastle disease virus = test: microbe, parasite or virus in culture; type: cell-based; settings: for MIC: avian paramyxovirus 1, in Gallus gallus, 48 h, read-out: Minimum growth-inhibition concentration
in vitro = settings: chicken, chick embryo fibroblast

Cl.NC12CCCC(C1)C1CCC2C1 (stereo not shown) [1-Aminotricyclo-[4.3.1.1^2,5]undecane hydrochloride, reference compound] showed an MIC (Newcastle disease virus) of 87 µg/mL and an MCC at 48 h (in vitro) of 87 µg/mL.

In the case of Cl.NCC12CCCC(C1)C1CCC2C1 (stereo not shown) [1-aminomethyltricyclo[4.3.1.1^2,5]undecane hydrochloride], the MIC (Newcastle disease virus) is reported as 40 µg/mL and the MCC at 48 h (in vitro) is reported as 40 µg/mL.

In the case of NC12CC3CC(CC(C3)C1)C2 [Adamantylamine hydrochloride, reference compound], the MIC (Newcastle disease virus) is reported as 250 µg/mL and the MCC at 48 h (in vitro) is reported as 250 µg/mL.

For NCC12CCCC(C1)C1CCC2C1 (stereo not shown) [compound of the formula (I), 1-aminomethyltricyclo[4.3.1.1^2,5]undecane], the “inhibitory effect on the growth of viruses (in words)” value (Newcastle disease virus; compared with 1-aminotricyclo[4.3.1.1^2,5 ]undecane) was “inhibitory effect on the growth of viruses at a lower concentration than the earlier compound”, the “inhibitory effect on the growth of Newcastle disease virus (in words)” value (Newcastle disease virus; in chick embryo fibroblasts) was “excellent inhibitory effect” and the “fraction of the concentration of 1-aminotricyclo[4.3.1.1^2,5 ]undecane at which virus multiplication is inhibited” value (Newcastle disease virus; relative to 1-aminotricyclo[4.3.1.1^2,5 ]undecane, Newcastle disease virus in chick embryo fibroblasts) was 1/2. The “fraction of the concentration of adamantylamine hydrochloride at which virus multiplication is inhibited” value (Newcastle disease virus; relative to adamantylamine hydrochloride, Newcastle disease virus in chick embryo fibroblasts) was “about 1/6”.
